# According to ChEMBL document CHEMBL2396653, “Synthesis and antimycobacterial evaluation of N-substituted 5-chloropyrazine-2-carboxamides” (Bioorg Med Chem Lett, 2013):
# The source made the active and inactive calls. No cut-off for these calls is given here.
# Key:
# [1] = tested on: Escherichia coli; test: Antibacterial activity against Escherichia coli CCM 4517 assessed as growth inhibition after 24 to 48 hrs by microbroth dilution method; format: functional, organism-based
# [2] = Stability of the compound at pH 7; format: physicochemical; details: buffer
# [3] = tested on: Staphylococcus epidermidis; test: Antibacterial activity against Staphylococcus epidermidis H 6966/08 clinical isolate assessed as growth inhibition after 24 to 48 hrs by microbroth dilution method; format: functional, organism-based
# [4] = tested on: Trichophyton mentagrophytes; test: Antifungal activity against Trichophyton mentagrophytes 445 assessed as growth inhibition after 72 to 120 hrs by microbroth dilution method; format: functional, organism-based
# [5] = tested on: Klebsiella pneumoniae; test: Antibacterial activity against ESBL-positive Klebsiella pneumoniae J 14368/08 clinical isolate assessed as growth inhibition after 24 to 48 hrs by microbroth dilution method; format: functional, organism-based
# [6] = tested on: Candida albicans; test: Antifungal activity against Candida albicans ATCC 44859 assessed as growth inhibition after 24 to 48 hrs by microbroth dilution method; format: functional, organism-based
# [7] = tested on: Trichosporon asahii; test: Antifungal activity against Trichosporon asahii 1188 assessed as growth inhibition after 24 to 48 hrs by microbroth dilution method; format: functional, organism-based
# [8] = tested on: Nakaseomyces glabratus; test: Antifungal activity against Candida glabrata 20/I assessed as growth inhibition after 24 to 48 hrs by microbroth dilution method; format: functional, organism-based
# [9] = tested on: Mycobacterium tuberculosis; test: Antimycobacterial activity against Mycobacterium tuberculosis H37Rv assessed as growth inhibition after 14 days by microdilution method; format: functional; details: 336 h
# [10] = tested on: Mycobacterium avium; test: Antimycobacterial activity against Mycobacterium avium CNCTC My 152/73 assessed as growth inhibition after 14 days by microdilution method; format: functional; details: CNCTC My 152/73, 336 h
# [11] = tested on: Staphylococcus aureus; test: Antibacterial activity against methicillin-resistant Staphylococcus aureus H 5996/08 clinical isolate assessed as growth inhibition after 24 to 48 hrs by microbroth dilution method; format: functional, organism-based
# [12] = tested on: Candida tropicalis; test: Antifungal activity against Candida tropicalis 156 assessed as growth inhibition after 24 to 48 hrs by microbroth dilution method; format: functional, organism-based
# [13] = tested on: Lichtheimia corymbifera; test: Antifungal activity against Absidia corymbifera 272 assessed as growth inhibition after 24 to 48 hrs by microbroth dilution method; format: functional, organism-based
# [14] = tested on: Mycobacterium avium; test: Antimycobacterial activity against Mycobacterium avium CNCTC My 80/72 assessed as growth inhibition after 14 days by microdilution method; format: functional; details: CNCTC My 80/72, 336 h
# [15] = tested on: Aspergillus fumigatus; test: Antifungal activity against Aspergillus fumigatus 231 assessed as growth inhibition after 24 to 48 hrs by microbroth dilution method; format: functional, organism-based
# [16] = tested on: Klebsiella pneumoniae; test: Antibacterial activity against Klebsiella pneumoniae D 11750/08 clinical isolate assessed as growth inhibition after 24 to 48 hrs by microbroth dilution method; format: functional, organism-based
# [17] = Lipophilicity, log K of the compound by HPLC analysis; format: physicochemical
# [18] = tested on: Pseudomonas aeruginosa; test: Antibacterial activity against Pseudomonas aeruginosa CCM 1961 assessed as growth inhibition after 24 to 48 hrs by microbroth dilution method; format: functional, organism-based
# [19] = tested on: Mycobacterium kansasii; test: Antimycobacterial activity against Mycobacterium kansasii CNCTC My 235/80 assessed as growth inhibition after 14 days by microdilution method; format: functional; details: CNCTC My 235/80, 336 h
# [20] = tested on: Pichia kudriavzevii; test: Antifungal activity against Candida krusei E28 assessed as growth inhibition after 24 to 48 hrs by microbroth dilution method; format: functional, organism-based
# [21] = tested on: Mycobacterium tuberculosis; test: Ratio of pyrazinamide MIC to compound MIC for Mycobacterium tuberculosis H37Rv; format: functional
# [22] = tested on: Enterococcus; test: Antibacterial activity against Enterococcus sp. J 14365/08 clinical isolate assessed as growth inhibition after 24 to 48 hrs by microbroth dilution method; format: functional, organism-based
# [23] = tested on: Staphylococcus aureus; test: Antibacterial activity against Staphylococcus aureus CCM 4516/08 assessed as growth inhibition after 24 to 48 hrs by microbroth dilution method; format: functional, organism-based
SMILES,growth inhibition (GI) [1],Stability [2],growth inhibition (GI) [3],growth inhibition (GI) [4],growth inhibition (GI) [5],growth inhibition (GI) [6],growth inhibition (GI) [7],growth inhibition (GI) [8],MIC [9] [µg/mL],MIC [10] [µg/mL],growth inhibition (GI) [11],growth inhibition (GI) [12],growth inhibition (GI) [13],MIC [14] [µg/mL],growth inhibition (GI) [15],growth inhibition (GI) [16],log K [17],growth inhibition (GI) [18],MIC [19] [µg/mL],growth inhibition (GI) [20],also measured
O=C(NCc1ccc(Cl)cc1Cl)c1cnc(Cl)cn1,inactive,Stable,inactive,inactive,inactive,inactive,inactive,inactive,12.5,> 100,inactive,inactive,inactive,> 100,inactive,inactive,0.727,inactive,> 100,inactive,Ratio [21]: 3; growth inhibition (GI) [22]: inactive; growth inhibition (GI) [23]: inactive
O=C(NCc1cccc(Cl)c1)c1cnc(Cl)cn1,inactive,Stable,inactive,inactive,inactive,inactive,inactive,inactive,25,> 100,inactive,inactive,inactive,> 100,inactive,inactive,0.4229,inactive,50,inactive,growth inhibition (GI) [22]: inactive; growth inhibition (GI) [23]: inactive
O=C(NCc1ccccc1C(F)(F)F)c1cnc(Cl)cn1,inactive,Stable,inactive,inactive,inactive,inactive,inactive,inactive,25,> 100,inactive,inactive,inactive,> 100,inactive,inactive,0.4851,inactive,100,inactive,growth inhibition (GI) [22]: inactive; growth inhibition (GI) [23]: inactive
Cc1ccc(CNC(=O)c2cnc(Cl)cn2)cc1,inactive,Stable,inactive,inactive,inactive,inactive,inactive,inactive,25,> 100,inactive,inactive,inactive,> 100,inactive,inactive,0.4199,inactive,3.13,inactive,growth inhibition (GI) [22]: inactive; growth inhibition (GI) [23]: inactive
